Test results published in patent US6060518A, “Polymer compositions for chemotherapy and methods of treatment using the same” (Supratek Pharma Inc., priority 1996, dated 2000).
Values after ≈ are worked out from the molar mass of the structure shown.

How the values were obtained:
[1] = system: Lewis Lung Carcinoma (3LL) Cell Line, subline H-59; experiment: XTT cytotoxicity assay, Lewis Lung Carcinoma 3LL (H-59) cells; assay type: cell-based; conditions: Mus musculus, read-out: IC50, doxorubicin (concentration producing 50% inhibition of cell growth)
Method: A highly metastatic clonal Lewis Lung Carcinoma cell subline H-59 (3LL) was used to evaluate cytotoxic activity of Prep. C and compare it with that of doxorubicin. To this end, the cells were suspended in RPMI 1640 medium supplemented with 10% fetal calf serum, and plated at 2000-3000 cells/well into 96-well microtiter plates. Prep. C in which doxorubicin final concentrations varied from 1 to 10,000 ng/ml was added to the cells and incubated for 2 hours at 37° C. and 5% CO2. The cells were then washed three times with RPMI 1640 and cultured for 4 days. Drug cytotoxicity was determined by a standard XTT assay. To this end, sterile 1 mg/ml XTT solution in RPMI 1640 containing 5 μl/ml of 1.54 μg/ml phenazine methasulfate solution in sterile PBS was added to the cells (100 μl/well) and incubated for 4 to 16 hours at 37° C. and 5% CO2. The absorbance at λ420 was determined using a microplate reader. All the experiments were carried out in triplicate. SEM values were less than 10% (P<0.05). the concentrations of free doxorubicin and doxorubicin in Prep.

[2] = system: Lewis Lung Carcinoma (3LL-H59); experiment: Metastasis development after i.v. inoculation of 3LL-H59 cells; assay type: in vivo, Female C57BL/6 mice; conditions: Dox 5.0 mg/kg, L61 0.25% w/v, PEG8000 1% w/v, Days 1, 4, 7, 10 animals per group
Method: A highly metastatic clonal subline H59 of Lewis Lung, Carcinoma (3LL-H59) was used as a model. […] These cells were cultured in D-MEM supplemented with 10% FCS at 37° C. in a humidified atmosphere with 5% CO2. After 7 to 10 passes in culture, the cells in their logarithmic growth phase were harvested with trypsin for the following experiments.
Animals. Female C57BL/6 mice were obtained from Charles River Canada Inc. (St. Constant, Quebec, Canada) and used at 6 to 7 weeks of age. Animals were grouped five per cage with air filter cover under a light (12-h light/dark cycle, light on at 06h00) and temperature-controlled environment (22 ±1° C.). All manipulations of animals were performed under a sterilized laminar. The animals had ad libitum access to Purina Mouse Chow (Pro Lab PMH 4018, Trademark of Agway, Syracuse, N.Y.) and water. […]
At Day 16 after tumor inoculation, the animals were sacrificed and subjected to routine metastasis inspection. All organs were routinely screened, although metastatic formations were normally detected only in the lung. […] The data are expressed as means±SEM for the number of metastatic sites and as the percentage of the animals having metastasis for the incidence of metastasis development. Statistical significance was calculated according to the multiple range test of Duncan-Kramer. […]

In the case of COc1cccc2c1C(=O)c1c(O)c3c(c(O)c1C2=O)C[C@@](O)(C(=O)CO)C[C@@H]3O[C@H]1C[C@H](N)[C@H](O)[C@H](C)O1 [Doxorubicin, doxorubicin], the IC50 [1] is reported as 0.11 µg/mL (≈ 0.202 µM), the “Incidence (animals having metastasis)” value ([2]; Day 16) is reported as 100% and the “Number of metast. sites on lung periphery ±SEM” value ([2]; counted Day 16) is reported as 8.90 ± 2.56.
